This is an account of results in the supplement of paper PMC10627819.

SMILES strings stand for the structures.

Assay in all cases: Bliss interaction score (quartile over a dose matrix) (fitness difference); higher = more antagonism (negative = synergy)
The test system of one assay is S. aureus Newman. In a few lines:
(§1)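 Combination data were used to infer fitness under each single drug. Fitness is the OD595 at entry into stationary phase divided by the robust mean of the plate's no-drug wells, with a cap of 1. The Bliss score is the observed minus the expected product fitness, summarised by quartiles over technical, biological and donor/recipient replicates.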

In a further assay the test system is S. aureus DSM 20231. The method, boiled down: as §1
The next assay concerns B. subtilis 168. In a few lines: as §1
A further assay relates to S. pneumoniae D39V. The method, boiled down: as §1
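Further: first quartile when negative (synergy) and third quartile when positive (antagonism).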

Consider `C[C@@H]1O[C@@H]1P(=O)(O)O` [Fosfomycin] + CC1(C)S[C@@H]2[C@H](NC(=O)Cc3ccccc3)C(=O)N2[C@H]1C(=O)O [PenicillinG], for which the Bliss interaction score with S. aureus Newman is 0.0465; in the assay on S. aureus DSM 20231, -0.136; with B. subtilis 168 it was -0.0401; in the assay with S. pneumoniae D39V it was -0.0713.
In the same order, the values of `C[C@@H]1O[C@@H]1P(=O)(O)O` [Fosfomycin] + CC(=O)O[C@H]1C[C@@]2(C)[C@@H](C[C@@H](O)[C@H]3[C@@]4(C)CC[C@@H](O)[C@@H](C)[C@@H]4CC[C@@]32C)/C1=C(\CCC=C(C)C)C(=O)O [Fusidic acid] are -0.0179, 0.0457, 0.0895 and 0.0774.
The like results for `C[C@@H]1O[C@@H]1P(=O)(O)O` [Fosfomycin] + CC[C@H]1OC(=O)[C@H](C)C(=O)[C@H](C)[C@@H](O[C@@H]2O[C@H](C)C[C@H](N(C)C)[C@H]2O)[C@](C)(OC)C[C@@H](C)C(=O)[C@H](C)[C@H]2N(CCCCn3cnc(-c4cccnc4)c3)C(=O)O[C@]12C [Telithromycin] were, in that order, -0.0576, 0.0337, 0.0824 and -0.0329.
The like results for `C[C@@H]1O[C@@H]1P(=O)(O)O` [Fosfomycin] + CN[C@H](CC(C)C)C(=O)N[C@H]1C(=O)N[C@@H](CC(N)=O)C(=O)N[C@H]2C(=O)N[C@H]3C(=O)N[C@H](C(=O)N[C@H](C(=O)O)c4cc(O)cc(O)c4-c4cc3ccc4O)[C@H](O[C@H]3C[C@](C)(N)[C@@H](O)[C@H](C)O3)c3ccc(c(Cl)c3)Oc3cc2cc(c3O[C@@H]2O[C@H](CO)[C@@H](O)[C@H](O)[C@H]2O[C@H]2C[C@](C)(NCc3ccc(-c4ccc(Cl)cc4)cc3)[C@@H](O)[C@H](C)O2)Oc2ccc(cc2Cl)[C@H]1O [Oritavancin] were, in that order, 0.0953, 0.0683, 0.0255 and -0.0314.
In the case of `C[C@@H]1O[C@@H]1P(=O)(O)O` [Fosfomycin] + CO[C@@]12[C@H](COC(N)=O)C3=C(C(=O)C(C)=C(N)C3=O)N1C[C@@H]1N[C@@H]12 [MitomycinC], the Bliss interaction score is -0.095 in the assay with S. aureus Newman, 0.0499 in the assay with S. aureus DSM 20231, -0.116 in the assay with B. subtilis 168 and 0.117 in the assay with S. pneumoniae D39V.
With `C[C@@H]1O[C@@H]1P(=O)(O)O` [Fosfomycin] + Oc1cc(Cl)ccc1Oc1ccc(Cl)cc1Cl [Triclosan], the Bliss interaction score in the assay on S. aureus Newman is 0.0573; in the assay on S. aureus DSM 20231, 0.0662; with B. subtilis 168 it was -0.0701; in the assay with S. pneumoniae D39V it was 0.0597.
In the case of `Cc1ncc([N+](=O)[O-])n1CCO` [Metronidazole] + CC1(C)S[C@@H]2[C@H](NC(=O)Cc3ccccc3)C(=O)N2[C@H]1C(=O)O [PenicillinG], the Bliss interaction score in the assay on S. aureus Newman was determined as 0.0592; in the assay with S. aureus DSM 20231, 0.0819; with B. subtilis 168 it was 0.0322; in the assay on S. pneumoniae D39V, 0.114.
As for `Cc1ncc([N+](=O)[O-])n1CCO` [Metronidazole] + CC[C@H]1OC(=O)[C@H](C)C(=O)[C@H](C)[C@@H](O[C@@H]2O[C@H](C)C[C@H](N(C)C)[C@H]2O)[C@](C)(OC)C[C@@H](C)C(=O)[C@H](C)[C@H]2N(CCCCn3cnc(-c4cccnc4)c3)C(=O)O[C@]12C [Telithromycin], the Bliss interaction score in the assay on S. aureus Newman is 0.0357; with S. aureus DSM 20231 it was 0.0599; with B. subtilis 168 it was 0.0709; with S. pneumoniae D39V, 0.157.
Take `Cc1ncc([N+](=O)[O-])n1CCO` [Metronidazole] + CN[C@H](CC(C)C)C(=O)N[C@H]1C(=O)N[C@@H](CC(N)=O)C(=O)N[C@H]2C(=O)N[C@H]3C(=O)N[C@H](C(=O)N[C@H](C(=O)O)c4cc(O)cc(O)c4-c4cc3ccc4O)[C@H](O[C@H]3C[C@](C)(N)[C@@H](O)[C@H](C)O3)c3ccc(c(Cl)c3)Oc3cc2cc(c3O[C@@H]2O[C@H](CO)[C@@H](O)[C@H](O)[C@H]2O[C@H]2C[C@](C)(NCc3ccc(-c4ccc(Cl)cc4)cc3)[C@@H](O)[C@H](C)O2)Oc2ccc(cc2Cl)[C@H]1O [Oritavancin]: the Bliss interaction score with S. aureus Newman is 0.0752; in the assay with S. aureus DSM 20231, 0.0377; in the assay with B. subtilis 168, -0.0222; with S. pneumoniae D39V it was -0.0396.
Turning to `Cc1ncc([N+](=O)[O-])n1CCO` [Metronidazole] + CO[C@@]12[C@H](COC(N)=O)C3=C(C(=O)C(C)=C(N)C3=O)N1C[C@@H]1N[C@@H]12 [MitomycinC], the Bliss interaction score with S. aureus Newman was determined as 0.0511; with S. aureus DSM 20231 it was 0.0443; with B. subtilis 168, 0.132; with S. pneumoniae D39V, 0.0827.
The like results for `Cc1ncc([N+](=O)[O-])n1CCO` [Metronidazole] + Clc1ccc(COC(Cn2ccnc2)c2ccc(Cl)cc2Cl)c(Cl)c1 [Miconazole] were, in that order, 0.0522, 0.0327, 0.0471 and 0.0478.
Turning to `Cc1ncc([N+](=O)[O-])n1CCO` [Metronidazole] + Oc1cc(Cl)ccc1Oc1ccc(Cl)cc1Cl [Triclosan], the Bliss interaction score in the assay with S. aureus Newman came to 0.0457; with S. aureus DSM 20231, 0.0778; with B. subtilis 168, 0.0396; in the assay on S. pneumoniae D39V it was 0.0696.
As to `CC1(C)S[C@@H]2[C@H](NC(=O)Cc3ccccc3)C(=O)N2[C@H]1C(=O)O` [PenicillinG] + C/C(=C\C(=O)OCCCCCCCCC(=O)O)C[C@@H]1OC[C@H](C[C@@H]2O[C@H]2[C@@H](C)[C@H](C)O)[C@@H](O)[C@H]1O [Pseudomonic acid], the Bliss interaction score was 0.0196 in the assay on S. aureus Newman, 0.0362 with S. aureus DSM 20231, 0.0659 in the assay on B. subtilis 168 and 0.0842 in the assay on S. pneumoniae D39V.
